These results are taken from US11339157B1, “4H-pyrrolo[3,2-c]pyridin-4-one derivatives” (Bayer Aktiengesellschaft, priority 2017, dated 2022).

Molecules are shown by their SMILES. Several values for one entry are separate records, joined by “and”; a condition that tells them apart may be missing. Equal values may be shown once. Read-outs that look alike come from different tables or passages of the source. Some results are limits rather than exact numbers.

Assay [1] addresses EGFR ins SVD (insertion of SVD between D770 and N771) (Homo sapiens, UniProt P00533, INS767SVD). Description: Exon 20-Mutant-EGFR(D770_N771insSVD) kinase assay (TR-FRET). It is filed as biochemical. In general terms: In TR-FRET formats the signal depends on donor and acceptor labels being close together.
Experimental: Exon 20-Mutant-EGFR(D770_N771insSVD) Kinase Assay
Inhibitory activity of compounds of the present invention against an Epidermal Growth Factor Receptor (EGFR) with an insertion of the amino acids sequence SVD between D770 and N771 was quantified employing the TR-FRET based kinase activity assay as described in the following paragraphs.
For the assay 50 nl of a 100-fold concentrated solution of the test compound in DMSO was pipetted into either a black low volume 384 well microtiter plate or a black 1536 well microtiter plate (both Greiner Bio-One, Frickenhausen, Germany), 2 μl of a solution of EGFR in aqueous assay buffer [50 mM Hepes pH 7.0, 10 mM MgCl2, 1 mM dithiothreitol, 0.5 mM EGTA, 0.3 mM activated sodium ortho-vanadate, 0.005% (w/v) bovine serum albumin, 0.005% (v/v) Tween-20] were added and the mixture was incubated for 15 min at 22° C. to allow pre binding of the test compounds to the enzyme before the start of the kinase reaction. […] The concentration of EGFR was adjusted depending of the activity of the enzyme lot and was chosen appropriate to have the assay in the linear range, typical concentration was 15 pg/μl. The reaction was stopped by the addition of 3 μl of a solution of HTRF detection reagents (83.3 nM streptavidine-XL665 [Cisbio Bioassays, Codolet, France] and 1.67 nM PT66-Tb-Cryptate, a terbium-cryptate labelled anti-phospho-tyrosine antibody from Cisbio Bioassays [instead of the PT66 Tb cryptate PT66 Eu Chelate from Perkin Elmer can also be used]) in an aqueous EDTA-solution (133.3 mM EDTA, 0.2% (w/v) bovine serum albumin in 50 mM HEPES pH 7.5).
(§2) The resulting mixture was incubated 1 h at 22° C. to allow the binding of the biotinylated phosphorylated peptide to the streptavidine-XL665 and the PT66-Tb-Cryptate. Subsequently the amount of phosphorylated substrate was evaluated by measurement of the resonance energy transfer from the PT66-Tb-Cryptate to the streptavidine-XL665.
In assay [2] the target is EGFR ins ASV (insertion of ASV between V769 and D770). Description: Exon 20-Mutant-EGFR(V769_D770insASV) kinase assay (TR-FRET). It is filed as biochemical, human. To be noted: 2 mM ATP.
Experimental: Exon 20-Mutant-EGFR(V769_D770insASV) Kinase Assay
Inhibitory activity of compounds of the present invention against an Epidermal Growth Factor Receptor (EGFR) with an insertion of the amino acids sequence ASV between V769 and D770 was quantified employing the TR-FRET based kinase activity assay as described in the following paragraphs.
For the assay 50 nl of a 100-fold concentrated solution of the test compound in DMSO was pipetted into either a black low volume 384well microtiter plate or a black 1536 well microtiter plate (both Greiner Bio-One, Frickenhausen, Germany), 2 μl of a solution of EGFR in aqueous assay buffer [50 mM Hepes pH 7.0, 10 mM MgCl2, 1 mM dithiothreitol, 0.5 mM EGTA, 0.3 mM activated sodium ortho-vanadate, 0.005% (w/v) bovine serum albumin, 0.005% (v/v) Tween-20] were added and the mixture was incubated for 15 min at 22° C. to allow pre binding of the test compounds to the enzyme before the start of the kinase reaction. […] The concentration of EGFR was adjusted depending of the activity of the enzyme lot and was chosen appropriate to have the assay in the linear range, typical concentration was 2.5 pg/μl. The reaction was stopped by the addition of 3 μl of a solution of HTRF detection reagents (83.3 nM streptavidine-XL665 [Cisbio Bioassays, Codolet, France] and 1.67 nM PT66-Tb-Cryptate, an terbium-cryptate labelled anti-phospho-tyrosine antibody from Cisbio Bioassays [instead of the PT66 Tb cryptate PT66 Eu Chelate from Perkin Elmer can also be used]) in an aqueous EDTA-solution (133.3 mM EDTA, 0.2% (w/v) bovine serum albumin in 50 mM HEPES pH 7.5).
as §2
The target in assay [3] is Bub1 (Homo sapiens (Human), UniProt O43683). Nature of the assay: Bub1 kinase assay (TR-FRET, 10 μM ATP). It is filed as biochemical. To be noted: mean, read-out: Bub1 kinase assay IC50 [mol/l] (mean). The source says: Bub1-inhibitory activities of compounds described in the present invention were quantified using a time-resolved fluorescence energy transfer (TR-FRET) kinase assay which measures phosphorylation of the synthetic peptide Biotin-Ahx-[…]—SEQ ID NO: 5 (C-terminus in amide form), purchased from e.g. Biosyntan (Berlin, Germany) by the (recombinant) catalytic domain of human Bub1 (amino acids 704-1085), expressed in Hi5 insect cells with an N-terminal His6-tag (SEQ ID NO: 9) and purified by affinity-(Ni-NTA) and size exclusion chromatography.
Chain of Bub1 (O43683 704-1085): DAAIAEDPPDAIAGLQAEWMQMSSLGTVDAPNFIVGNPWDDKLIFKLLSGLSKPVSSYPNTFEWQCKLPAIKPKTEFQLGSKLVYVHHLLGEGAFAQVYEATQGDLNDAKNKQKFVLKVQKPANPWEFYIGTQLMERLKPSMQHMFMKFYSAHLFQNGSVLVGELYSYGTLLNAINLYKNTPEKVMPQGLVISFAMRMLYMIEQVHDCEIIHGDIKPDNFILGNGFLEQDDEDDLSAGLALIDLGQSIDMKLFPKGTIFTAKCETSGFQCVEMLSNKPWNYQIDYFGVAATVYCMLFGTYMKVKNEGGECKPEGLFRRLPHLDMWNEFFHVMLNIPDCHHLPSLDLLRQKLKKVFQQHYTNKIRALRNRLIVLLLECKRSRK
In a typical assay 11 different concentrations of each compound (0.1 nM, 0.33 nM, 1.1 nM, 3.8 nM, 13 nM, 44 nM, 0.15 μM, 0.51 μM, 1.7 μM, 5.9 μM and 20 μM) were tested in duplicate within the same microtiter plate. To this end, 100-fold concentrated compound solutions (in DMSO) were previously prepared by serial dilution (1:3.4) of 2 mM stocks in a clear low volume 384-well source microtiter plate (Greiner Bio-One, Frickenhausen, Germany), from which 50 nl of compounds were transferred into a black low volume test microtiter plate from the same supplier. […] The resulting mixture (5 μl final volume) was incubated at 22° C. during 60 min., and the reaction was stopped by the addition of 5 μl of an aqueous EDTA-solution (50 mM EDTA, in 100 mM HEPES pH 7.5 and 0.2% (w/v) bovine serum albumin) which also contained the TR-FRET detection reagents (0.2 μM streptavidin-XL665 [Cisbio Bioassays, Codolet, France] and 1 nM anti-phosho-Serine antibody [Merck Millipore, cat. #35-002] and 0.4 nM LANCE EU-W1024 labeled anti-mouse IgG antibody [Perkin-Elmer, product no. AD0077, alternatively a Terbium-cryptate-labeled anti-mouse IgG antibody from Cisbio Bioassays can be used]). The stopped reaction mixture was further incubated 1 h at 22° C. in order to allow the formation of complexes between peptides and detection reagents. Subsequently, the amount of product was evaluated by measurement of the resonance energy transfer from the Eu-chelate-antibody complex recognizing the Phosphoserine residue to the streptavidin-XL665 bound to the biotin moiety of the peptide. To this end, the fluorescence emissions at 620 nm and 665 nm after excitation at 330-350 nm were measured in a TR-FRET plate reader, e.g. a Rubystar or Pherastar (both from BMG Labtechnologies, Offenburg, Germany) or a Viewlux (Perkin-Elmer) and the ratio of the emissions (665 nm/[…]) was taken as indicator for the amount of phosphorylated substrate. The data were normalised using two sets of control wells for high-(=enzyme reaction without inhibitor=0%=Minimum inhibition) and low-(=all assay components without enzyme=100%=Maximum inhibition) Bub1 activity. IC50 values were calculated by fitting the normalized inhibition data to a 4-parameter logistic equation (Minimum, Maximum, IC50, Hill; Y=Max+(Min−Max)/(1+(X/IC50)Hill)).

Assay [4] has as its system Ba/F3-EGFR-insSVD cells. Description: Proliferation assay in BA/F3 (ins SVD) cells (Cell Titer-Glo). In kind it is cell-based. The note with it: Mus musculus, BaF3, 48 h, Table 10, plated without EGF. The method, boiled down:
(§1)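 Ba/F3 cells stably expressing retrovirally transduced EGFR-WT or EGFR-insSVD; WT cells plated with 10 ng/mL EGF, insSVD cells without EGF. Compound exposure 48 h at 37° C; viability read by CellTiter-Glo luminescence.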

The test system of assay [5] is Ba/F3-EGFR-WT cells. Description: Proliferation assay in BA/F3 (wild type) cells (Cell Titer-Glo). In kind it is cell-based. To be noted: Mus musculus, BaF3, 48 h, Table 10, plated with 10 ng/mL EGF. The method, boiled down: as §1
A general note: Cellular ATP, detected with luciferase, serves as a proxy for viable cell number.

Setting [6] is: 2 mM ATP, mean, read-out: EGFR ins SVD IC50 [mol/l] (mean).
[7] abbreviates: Table 9, read-out: mutEGFR (D770_N771insSVD) kinase assay IC50.

Chain of EGFR ins SVD (insertion of SVD between D770 and N771) (P00533 with tags, fused parts or gaps INS767SVD limits assumed): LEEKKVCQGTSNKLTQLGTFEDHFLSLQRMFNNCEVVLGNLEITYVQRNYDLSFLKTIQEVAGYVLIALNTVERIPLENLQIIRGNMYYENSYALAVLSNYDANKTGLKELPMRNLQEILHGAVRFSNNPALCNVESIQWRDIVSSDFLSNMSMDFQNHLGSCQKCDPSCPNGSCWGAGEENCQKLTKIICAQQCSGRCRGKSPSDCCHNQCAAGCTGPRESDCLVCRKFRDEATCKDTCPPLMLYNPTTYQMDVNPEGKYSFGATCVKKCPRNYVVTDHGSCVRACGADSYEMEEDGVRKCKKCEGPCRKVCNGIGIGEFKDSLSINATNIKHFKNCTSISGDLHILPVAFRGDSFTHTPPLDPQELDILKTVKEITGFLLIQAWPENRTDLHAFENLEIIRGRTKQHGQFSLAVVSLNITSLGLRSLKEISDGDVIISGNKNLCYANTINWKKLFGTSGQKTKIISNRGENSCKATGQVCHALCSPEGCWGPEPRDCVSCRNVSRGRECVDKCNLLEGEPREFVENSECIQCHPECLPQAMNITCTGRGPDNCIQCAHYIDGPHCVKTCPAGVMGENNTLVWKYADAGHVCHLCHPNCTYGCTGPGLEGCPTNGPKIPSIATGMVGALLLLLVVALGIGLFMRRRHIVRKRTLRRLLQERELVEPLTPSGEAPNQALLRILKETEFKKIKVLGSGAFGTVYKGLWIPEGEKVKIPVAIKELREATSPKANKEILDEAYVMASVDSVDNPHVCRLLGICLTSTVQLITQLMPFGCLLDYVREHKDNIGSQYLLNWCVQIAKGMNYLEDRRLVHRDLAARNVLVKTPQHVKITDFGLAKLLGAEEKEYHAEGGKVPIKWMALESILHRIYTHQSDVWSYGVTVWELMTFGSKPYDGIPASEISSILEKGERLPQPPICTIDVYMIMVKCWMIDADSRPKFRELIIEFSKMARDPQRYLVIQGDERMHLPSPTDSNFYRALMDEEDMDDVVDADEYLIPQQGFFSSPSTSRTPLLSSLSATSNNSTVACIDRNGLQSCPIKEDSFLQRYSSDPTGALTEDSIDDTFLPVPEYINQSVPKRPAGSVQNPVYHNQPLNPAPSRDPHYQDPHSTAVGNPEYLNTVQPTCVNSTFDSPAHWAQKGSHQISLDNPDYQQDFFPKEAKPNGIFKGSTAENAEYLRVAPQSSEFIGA

In the case of `COCCOc1cnccc1-c1[nH]c2c(c1Nc1ccccc1OC(F)F)C(=O)NCC2` [Example 11, 3-{[2-(difluoromethoxy)phenyl]amino}-2-[3-(2-methoxyethoxy)pyridin-4-yl]-1,5,6,7-tetrahydro-4H-pyrrolo[3,2-c]pyridin-4-one], the IC50 in assay [1] (setting [6]) amounted to 0.22 nM; in assay [1] (setting [7]), 0.292 nM; in assay [3] it was 192 nM; in assay [4], 357 nM; in assay [5], 1780 nM. For the same compound, in assay [2], the “EGFR ins ASV IC50 [mol] (mean)” value worked out at 4.25e-09 mol.
With `COCCOc1cnccc1-c1[nH]c2c(c1Nc1cc(F)cc(F)c1)C(=O)NCC2` [Example 9, 3-[(3,5-difluorophenyl)amino]-2-[3-(2-methoxyethoxy)pyridin-4-yl]-1,5,6,7-tetrahydro-4H-pyrrolo[3,2-c]pyridin-4-one], the IC50 in assay [1] (setting [6]) was < 0.072 nM; in assay [1] (setting [7]), 0.36 nM and 0.388 nM and 0.0776 nM and < 0.0725 nM and 0.1 nM and 0.0962 nM and 0.196 nM and 0.206 nM; in assay [3], 27.2 nM; in assay [4] it was 121 nM; in assay [5], 376 nM. Also, the “EGFR ins ASV IC50 [mol] (mean)” value in assay [2] was 6.15e-09 mol.
For the compound `COc1c(F)cc(F)cc1Nc1c(-c2ccncc2OCC(C)(C)OC)[nH]c2c1C(=O)NCC2` [Example 31, 3-[(3,5-difluoro-2-methoxyphenyl)amino]-2-[3-(2-methoxy-2-methylpropoxy)pyridin-4-yl]-1,5,6,7-tetrahydro-4H-pyrrolo[3,2-c]pyridin-4-one], the IC50 was determined as 0.0988 nM in assay [1] (setting [6]); 0.193 nM in assay [1] (setting [7]); 265 nM in assay [3]; 158 nM in assay [4]; 1710 nM in assay [5]. Moreover, in assay [2], the “EGFR ins ASV IC50 [mol] (mean)” value amounted to 1.61e-10 mol.
Consider `COCCOc1cnccc1-c1[nH]c2c(c1Nc1cc(F)cc(F)c1OC)C(=O)NCC2` [Example 30, 3-[(3,5-difluoro-2-methoxyphenyl)amino]-2-[3-(2-methoxyethoxy)pyridin-4-yl]-1,5,6,7-tetrahydro-4H-pyrrolo[3,2-c]pyridin-4-one], for which the IC50 in assay [1] (setting [6]) is 0.0969 nM; in assay [1] (setting [7]), 0.109 nM; in assay [3] it was 323 nM; in assay [4] it was 149 nM; in assay [5], 1860 nM. The “EGFR ins ASV IC50 [mol] (mean)” value in assay [2] is 2.09e-10 mol.
As to `COC(C)(C)COc1cnccc1-c1[nH]c2c(c1Nc1cccc(F)c1)C(=O)NCC2` [Example 6, 3-[(3-fluorophenyl)amino]-2-[3-(2-methoxy-2-methylpropoxy)pyridin-4-yl]-1,5,6,7-tetrahydro-4H-pyrrolo[3,2-c]pyridin-4-one], the IC50 in assay [1] (setting [6]) was < 0.072 nM; in assay [1] (setting [7]), < 0.0725 nM (2×) and 0.104 nM and 0.0949 nM; in assay [3] it was 26.9 nM; in assay [4] it was 63.3 nM; in assay [5], 394 nM. In addition, the “EGFR ins ASV IC50 [mol] (mean)” value in assay [2] turned out to be 2.12e-10 mol.
